Experimental findings from patent US6586434B2, “Method for the preparation of tetrahydrobenzothiepines” (G.D. Searle, LLC, priority 2000, dated 2003) are described below.

This data set is described as follows: Water uptake experiments (Dynamic Vapor Sorption, water sorption/desorption isotherms). It counts as physicochemical. Conditions: for Desorptoin % Weight Change: reverse stepwise RH decrease; for Sorption % Weight Change: stepwise RH increase. On the procedure: Water sorption experiments are performed on a Dynamic Vapor Sorption (DVS) apparatus (DVS-1000 manufactured by Surface Measurements Systems, Inc.). Experiments are performed at 25° C. by initially drying the material of interest (about 10 mg sample) from 30% relative humidity (RH) (ambient room condition) to about 9% RH in a stepwise fashion (10% RH step) by purging with dry nitrogen until no further weight change was observed. The samples are then exposed to a stepwise (10% RH steps) increase in RH from about 0 to about 90% RH. Each successive step is initiated when the change in weight over time at the relative humidity was less than 0.0003% ((dm/dt)/m0×100, where m is mass in mg, m0 is initial mass, and t is time in minutes). The sample is then taken through the reverse of the stepwise % RH increase. The data are collected on a computer and analyzed using SMS' proprietary MS-Excel macro interface software.

Each structure is given as a SMILES string.

Take `CCCCC1(CCCC)CS(=O)(=O)c2ccc(N(C)C)cc2[C@@H](c2ccc(OCc3ccc(C[N+]45CCN(CC4)CC5)cc3)cc2)[C@H]1O.[Cl-]` [Form I, (4R,5R)-1-((4-(4-(3,3-dibutyl-7-(dimethylamino)-2,3,4,5-tetrahydro-4-hydroxy-1,1-dioxido-1-benzithiepin-5-yl)phenoxy)methyl)phenyl)methyl-4-aza-1-azoniabicyclo[2.2.2]octane chloride]: the “Desorptoin % Weight Change” value reads like this: (0.45 % RH at 25° C.) 0.057%; (9.2 % RH at 25° C.) 0.997%; (20.05 % RH at 25° C.) 2.1025%; (29.75 % RH at 25° C.) 3.599%; (39.4 % RH at 25° C.) 4.743%; (49.55 % RH at 25° C.) 5.321%. For the same molecule, the “Desorptoin % Weight Change” value by setting is: (59.4 % RH at 25° C.) 5.726%; (69.05 % RH at 25° C.) 6.054%; (78.8 % RH at 25° C.) 6.357%; (88.5 % RH at 25° C.) 6.734%. The “Sorption % Weight Change” value is 0.057% (0.45 % RH at 25° C.); 0.9575% (9.2 % RH at 25° C.); 2.016% (20.05 % RH at 25° C.); 3.4105% (29.75 % RH at 25° C.); 4.282% (39.4 % RH at 25° C.); 4.928% (49.55 % RH at 25° C.). The “Sorption % Weight Change” value is 5.356% (59.4 % RH at 25° C.), 5.706% (69.05 % RH at 25° C.), 6.109% (78.8 % RH at 25° C.) and 6.734% (88.5 % RH at 25° C.).

On to `CCCCC1(CCCC)CS(=O)(=O)c2ccc(N(C)C)cc2[C@@H](c2ccc(OCc3ccc(C[N+]45CCN(CC4)CC5)cc3)cc2)[C@H]1O.[Cl-]` [Form II, (4R,5R)-1-((4-(4-(3,3-dibutyl-7-(dimethylamino)-2,3,4,5-tetrahydro-4-hydroxy-1,1-dioxido-1-benzithiepin-5-yl)phenoxy)methyl)phenyl)methyl-4-aza-1-azoniabicyclo[2.2.2]octane chloride], for which the “Desorptoin % Weight Change” value (1.3 % RH at 25° C.) is −0.02695%; the “Desorptoin % Weight Change” value (9.35 % RH at 25° C.) came to 0.04235%; the “Desorptoin % Weight Change” value (20.25 % RH at 25° C.) amounted to 0.09715%; the “Desorptoin % Weight Change” value (29.75 % RH at 25° C.) amounted to 0.1444%; the “Desorptoin % Weight Change” value (39.55 % RH at 25° C.) is on record as 0.1866%; the “Desorptoin % Weight Change” value (49.7 % RH at 25° C.) was 0.2636%. The “Desorptoin % Weight Change” value was 0.331% (59.5 % RH at 25° C.), 0.3983% (69.1 % RH at 25° C.), 0.4849% (78.65 % RH at 25° C.) and 0.6446% (88.5 % RH at 25° C.). Further, the “Sorption % Weight Change” value is −0.02695% (1.3 % RH at 25° C.); 0.04715% (9.35 % RH at 25° C.); 0.1058% (20.25 % RH at 25° C.); 0.1376% (29.75 % RH at 25° C.); 0.1809% (39.55 % RH at 25° C.); 0.2386% (49.7 % RH at 25° C.). Besides, the “Sorption % Weight Change” value reads like this: (59.5 % RH at 25° C.) 0.304%; (69.1 % RH at 25° C.) 0.3945%; (78.65 % RH at 25° C.) 0.4695%; (88.5 % RH at 25° C.) 0.6446%. Further, for the setting “dry sample equilibrated under 80% relative humidity (RH) air at 25° C.”, the “weight gain of dry sample (of its own weight) when equilibrated under humid air” value is “less than 1%”. The hygroscopicity result (dry sample, 80% RH air at 25° C.) is on record as “essentially nonhygroscopic”.
